# Measured values published in patent publication US9212189B2, “Fluorescent probes for reactive sulfur species” (THE REGENTS OF THE UNIVERSITY OF CALIFORNIA, priority 2011, dated 2015).
# Test system: HEK293T cells
# Assay: Confocal imaging of H2S detection in live HEK293T cells
# Format: cell-based
# Conditions: for intracellular fluorescence intensity after NaSH: 5 μM probe 30 min, then 250 μM NaSH 30 min, excitation 488 nm; for background response in untreated cells: absence of exogenous H2S; for cell viability over the course of the experiments: bright field images co-localized with Hoescht nuclear staining
# Protocol: HEK 293T cells were maintained in exponential growth as a monolayer in Dulbecco's Modified Eagle Medium (DMEM, Invitrogen) supplemented with 10% fetal bovine serum (FBS, Hyclone), and incubated at 37° C. in 5% CO2. One or two days before imaging, the cells were passaged and plated in phenol red-free medium on 4-well Lab-Tek borosilicate chambered coverglass slides (Nunc) and allowed to grow to 50-70% confluence. For all experiments, solutions of SF1 and SF2 were prepared in DMF (5 mM) and diluted into DMEM at the desired working concentrations (5 μM). NaSH was delivered from a stock solution of 25 mM in degassed (by bubbling N2 for ˜30 min) Dulbecco's Phosphate Buffered Saline (DPBS). Cells were treated with SF1 or SF2 for one hour, with NaSH (50-250 μM) or blank control added for the final 30 minutes. Images were collected at 30 min after NaSH addition. For nuclear imaging studies, cells were incubated with 1 μM Hoechst 33342 at 37° C. for 30 min prior to imaging.
# Confocal Imaging Experiments. Confocal fluorescence imaging studies were performed with a Zeiss laser scanning microscope 710 with a 40× water objective lens, with Zen 2009 software (Carl Zeiss). SF1 and SF2 were excited using a 488 nm Ar laser, and emission collected using a META detector between 500 and 650 nm. Hoechst 33342 was excited with a 405 nm diode laser, and emission collected using a META detector between 450 and 500 nm. The cells were imaged at 37° C. and 5% CO2 throughout the course of the experiment. Image analysis was performed using ImageJ (National Institute of Health).
# FIG. 6. Confocal images of H2S detection in live HEK293T cells using SF1 and SF2. (a) HEK293T cells incubated with SF1 for 60 min at 37° C. (b) HEK293T cells incubated with SF1 for 60 min at 37° C. with 250 μM NaSH added for the final 30 min. (c) Brightfield images of the same field of cells in (b) overlaid with images of 1 μM Hoescht stain at 37° C. (d) HEK293T cells incubated with SF2 for 60 min at 37° C. (e) HEK293T cells incubated with SF2 for 60 min at 37° C. with 250 μM NaSH added for the final 30 min. (f) Brightfield images of the same field of cells in (e) overlaid with images of 1 μM Hoescht stain at 37° C. Scale bars represent […].
# FIG. 7. Mean fluorescence intensity of confocal images of H2S detected in live HEK293T cells treated with 0, 50, 100, and 250 μM H2S. (a) HEK293T cells were incubated with SF1 for 60 min at 37° C. with the indicated amount of H2S added for the final 30 min. (b) HEK293T cells were incubated with SF2 for 60 min at 37° C. with the indicated amount of H2S added for the final 30 min. Data represent the mean fluorescence intensity of distinct fields (n=4). Error bars are ±s.e.m.
SMILES,intracellular fluorescence intensity after NaSH,background response in untreated cells,cell viability over the course of the experiments,cellular permeability (live HEK293T cells),staining of cellular nuclei (live HEK293T cells)
"CC(C)(C)OC(=O)Nc1ccc2c(c1)Oc1cc(N=[N+]=[N-])ccc1C21OC(=O)c2ccccc21 (stereo not drawn) [SF1, Sulfidefluor-1]",patent increase in intracellular fluorescence intensity,little background response,confirm the cell viability,exceptional cellular permeability,–
"[N-]=[N+]=Nc1ccc2c(c1)Oc1cc(NC(=O)N3CCOCC3)ccc1C21OC(=O)c2ccccc21 (stereo not drawn) [SF2, Sulfidefluor-2]",patent increase in intracellular fluorescence intensity,little background response,confirm the cell viability,exceptional cellular permeability,significant staining of the cellular nuclei
